Assay results from patent US11964953B2, “Substituted aminothiazoles as DGKzeta inhibitors for immune activation” (Bayer Aktiengesellschaft, priority 2020, dated 2024).

Biological target: human DGKζ (Homo sapiens (Human), UniProt Q13574)
Experiment: Human DGKζ kinase activity inhibition assay (ADP-Glo)
Format: biochemical
Details: in vitro human DGKζ kinase activity inhibition assay; read-out: IC50
Outline: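 Enzyme was C-terminally FLAG-tagged full-length recombinant human DGKζ from baculovirus-infected insect cells. Substrate preparation used octyl-β-D-glucopyranoside in 50 mM MOPS pH 7.4 with sonication; ADP generated was quantified by ADP-Glo luminescence as activity measure.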

Sequence of human DGKζ (Q13574 other isoform, or with tags, fused parts or gaps): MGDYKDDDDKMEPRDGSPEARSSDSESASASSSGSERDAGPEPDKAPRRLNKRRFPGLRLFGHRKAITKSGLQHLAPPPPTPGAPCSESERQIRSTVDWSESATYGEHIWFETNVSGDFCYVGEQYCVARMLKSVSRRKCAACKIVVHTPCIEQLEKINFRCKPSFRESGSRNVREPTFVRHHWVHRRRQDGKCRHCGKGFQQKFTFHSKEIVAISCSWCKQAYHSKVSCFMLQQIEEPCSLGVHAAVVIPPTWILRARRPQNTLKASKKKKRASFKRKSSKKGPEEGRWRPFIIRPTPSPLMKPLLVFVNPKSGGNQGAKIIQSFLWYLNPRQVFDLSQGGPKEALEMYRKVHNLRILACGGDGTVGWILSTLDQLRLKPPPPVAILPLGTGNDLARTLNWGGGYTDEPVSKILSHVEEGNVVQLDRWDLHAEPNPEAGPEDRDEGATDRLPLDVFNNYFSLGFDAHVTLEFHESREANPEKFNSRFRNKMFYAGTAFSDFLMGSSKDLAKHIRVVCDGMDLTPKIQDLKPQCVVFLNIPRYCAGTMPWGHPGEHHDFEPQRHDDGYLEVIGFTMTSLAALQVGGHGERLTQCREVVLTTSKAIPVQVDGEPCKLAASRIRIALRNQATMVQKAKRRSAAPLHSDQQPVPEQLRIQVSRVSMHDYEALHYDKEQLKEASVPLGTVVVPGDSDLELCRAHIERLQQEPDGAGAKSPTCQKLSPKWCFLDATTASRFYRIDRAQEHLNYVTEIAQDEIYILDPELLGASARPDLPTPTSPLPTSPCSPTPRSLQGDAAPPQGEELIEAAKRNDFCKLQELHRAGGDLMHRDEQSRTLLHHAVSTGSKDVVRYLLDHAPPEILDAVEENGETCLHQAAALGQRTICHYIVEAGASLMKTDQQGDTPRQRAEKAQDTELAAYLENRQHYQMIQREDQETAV

Structure (SMILES)	IC50 [µM]
CC(C(N)=O)N(c1ccc(F)cc1)c1nc(N)c(C(=O)c2ccc(OCc3ccccc3)cc2)s1 (racemic) [Example 158, rac-2-(N-[4-amino-5-(4-benzyloxybenzoyl)thiazol-2-yl]-4-fluoro-anilino)propanamide]	0.00671
CC(C(N)=O)N(c1ccc(F)cc1)c1nc(N)c(C(=O)c2ccc(C(F)F)nc2)s1 (racemic) [Example 159, rac-2-(N-[4-amino-5-[6-(difluoromethyl)pyridine-3-carbonyl]thiazol-2-yl]-4-fluoro-anilino)propanamide]	0.214
CC(C(N)=O)N(c1ccc(F)cc1)c1nc(N)c(C(=O)c2ccc(OC(F)F)nc2)s1 (racemic) [Example 162, rac-2-(N-[4-amino-5-[6-(difluoromethoxy)pyridine-3-carbonyl]thiazol-2-yl]-4-fluoro-anilino)propanamide]	0.022
CC(=O)OCCOc1ccc(C(=O)c2sc(N(c3ccc(F)cc3)C(C)C(N)=O)nc2N)cc1 (racemic) [Example 168, rac-2-[4-[4-amino-2-(N-(2-amino-1-methyl-2-oxo-ethyl)-4-fluoro-anilino)thiazole-5-carbonyl]phenoxy]ethyl acetate]	0.019
CC(C(N)=O)N(c1ccc(F)cc1)c1nc(N)c(C(=O)c2ccc(NC(=O)OCc3ccccc3)cc2)s1 (racemic) [Example 169, rac-benzyl N-[4-[4-amino-2-(N-(2-amino-1-methyl-2-oxo-ethyl)-4-fluoro-anilino)thiazole-5-carbonyl]phenyl]carbamate]	0.003
CC(C(N)=O)N(c1ccc(F)cc1)c1nc(N)c(C(=O)c2ccc(OCc3ccccc3)cc2)s1 (racemic) [Example 170, rac-2-(N-[4-amino-5-(4-benzyloxybenzoyl)thiazol-2-yl]-4-fluoro-anilino)propanamide]	0.007
COc1ccc(N(c2nc(N)c(C(=O)c3ccc(OC(F)F)cc3)s2)C(C)C(N)=O)cc1 (racemic) [Example 174, rac-2-(N-[4-amino-5-[4-(difluoromethoxy)benzoyl]thiazol-2-yl]-4-methoxy-anilino)propanamide]	0.051
COc1ccc(C(=O)c2sc(N(c3ccc(F)cc3)C(C)C(N)=O)nc2C)cc1 (racemic) [Example 176, rac-2-(4-fluoro-N-[5-(4-methoxybenzoyl)-4-methyl-thiazol-2-yl]anilino)propanamide]	0.091
CC(C(N)=O)N(c1ccc(F)cc1)c1nc(N)c(C(=O)c2ccc(NC(=O)C3CC3)cc2)s1 (racemic) [Example 177, rac-4-[4-[4-amino-2-(N-(2-amino-1-methyl-2-oxo-ethyl)-4-fluoro-anilino)thiazole-5-carbonyl]phenyl]cyclopropanecarboxamide]	0.04
CC(C(N)=O)N(c1ccc(F)cc1)c1nc(N)c(C(=O)c2ccc(N3CCOCC3)cc2)s1 (racemic) [Example 178, rac-2-(N-[4-amino-5-(4-morpholinobenzoyl)thiazol-2-yl]-4-fluoro-anilino)propanamide]	0.048
CC(C(N)=O)N(c1ccc(F)cc1)c1nc(N)c(C(=O)c2ccc(Cn3cccn3)cc2)s1 (racemic) [Example 179, rac-2-(N-[4-amino-5-[4-(pyrazol-1-ylmethyl)benzoyl]thiazol-2-yl]-4-fluoro-anilino)propanamide]	0.057
CC(C(N)=O)N(c1ccc(F)cc1)c1nc(N)c(C(=O)c2ccc(N3CCCC3)cc2)s1 (racemic) [Example 181, rac-2-(N-[4-amino-5-(4-pyrrolidin-1-ylbenzoyl)thiazol-2-yl]-4-fluoro-anilino)propanamide]	0.065
CC(C(N)=O)N(c1ccc(OCc2ccccc2)cc1)c1nc(N)c(C(=O)c2ccc(OC(F)F)cc2)s1 (racemic) [Example 182, rac-2-(N-[4-amino-5-[4-(difluoromethoxy)benzoyl]thiazol-2-yl]-4-benzyloxy-anilino)propanamide]	0.091
CC(=O)Nc1ccc(C(=O)c2sc(N(c3ccc(F)cc3)C(C)C(N)=O)nc2N)cc1 (racemic) [Example 185, rac-2-(N-[5-(4-acetamidobenzoyl)-4-amino-thiazol-2-yl]-4-fluoro-anilino)propanamide]	0.301
CC(C(N)=O)N(c1ccc(F)cc1)c1nc(N)c(C(=O)c2ccnc(C(F)F)c2)s1 (racemic) [Example 188, rac-2-(N-[4-amino-5-[2-(difluoromethyl)pyridine-4-carbonyl]thiazol-2-yl]-4-fluoro-anilino)propanamide]	1.24
COc1cc(C(=O)c2sc(N(c3ccc(F)cc3)C(C)C(N)=O)nc2N)ccn1 (racemic) [Example 190, rac-2-(N-[4-amino-5-(2-methoxypyridine-4-carbonyl)thiazol-2-yl]-4-fluoro-anilino)propanamide]	0.553

Further lines, results first:

IC50 [µM]	Structure (SMILES)
0.187	CC(C(N)=O)N(c1ccc(F)c(Cl)c1)c1nc(N)c(C(=O)c2ccncc2)s1 (racemic) [Example 160, rac-2-(N-[4-amino-5-(pyridine-4-carbonyl)thiazol-2-yl]-3-chloro-4-fluoro-anilino)propanamide]
0.015	COc1ccc(C(=O)c2sc(N(c3ccc(F)c(Cl)c3)C(C)C(N)=O)nc2N)cc1 (racemic) [Example 161, rac-2-(N-[4-amino-5-(4-methoxybenzoyl)thiazol-2-yl]-3-chloro-4-fluoro-anilino)propanamide]
0.009	CC(C(N)=O)N(c1ccc(F)c(F)c1)c1nc(N)c(C(=O)c2ccc(OC(F)F)nc2)s1 (racemic) [Example 163, rac-2-(N-[4-amino-5-[6-(difluoromethoxy)pyridine-3-carbonyl]thiazol-2-yl]-3,4-difluoro-anilino)propanamide]
0.007	CC(C(N)=O)N(c1ccc(Cl)c(F)c1)c1nc(N)c(C(=O)c2ccc(OC(F)F)nc2)s1 (racemic) [Example 164, rac-2-(N-[4-amino-5-[6-(difluoromethoxy)pyridine-3-carbonyl]thiazol-2-yl]-4-chloro-3-fluoro-anilino)propanamide]
0.003	CC(C(N)=O)N(c1ccc(F)c(F)c1)c1nc(N)c(C(=O)c2ccc(OCc3ccccc3)cc2)s1 (racemic) [Example 165, rac-2-(N-[4-amino-5-(4-benzyloxybenzoyl)thiazol-2-yl]-3,4-difluoro-anilino)propanamide]
0.003	CC(C(N)=O)N(c1ccc(Cl)c(F)c1)c1nc(N)c(C(=O)c2ccc(OCc3ccccc3)cc2)s1 (racemic) [Example 166, rac-2-(N-[4-amino-5-(4-benzyloxybenzoyl)thiazol-2-yl]-4-chloro-3-fluoro-anilino)propanamide]
0.002	CC(C(N)=O)N(c1ccc(F)c(F)c1)c1nc(N)c(C(=O)c2ccc(NC(=O)OCc3ccccc3)cc2)s1 (racemic) [Example 167, rac-benzyl N-[4-[4-amino-2-(N-(2-amino-1-methyl-2-oxo-ethyl)-3,4-difluoro-anilino)thiazole-5-carbonyl]phenyl]carbamate]
0.011	CC(C(N)=O)N(c1ccc(F)cc1)c1nc(N)c(C(=O)c2ccc(I)cc2)s1 (racemic) [Example 171, rac-2-(N-[4-amino-5-(4-iodobenzoyl)thiazol-2-yl]4-fluoro-anilino)propanamide]
0.046	COc1ccc(C(=O)c2sc(N(c3ccc(Cl)c(F)c3)C(C)C(N)=O)nc2N)cn1 (racemic) [Example 172, rac-2-(N-[4-amino-5-(6-methoxypyridine-3-carbonyl)thiazol-2-yl]-4-chloro-3-fluoro-anilino)propanamide]
0.025	CC(C(N)=O)N(c1ccc(F)cc1)c1nc(N)c(C(=O)c2ccc(Oc3ccccc3)cc2)s1 (racemic) [Example 173, rac-2-(N-[4-amino-5-(4-phenoxybenzoyl)thiazol-2-yl]-4-fluoro-anilino)propanamide]
0.02	CC(C(N)=O)N(c1ccc(F)cc1)c1nc(N)c(C(=O)c2ccc([N+](=O)[O-])cc2)s1 (racemic) [Example 175, rac-2-(N-[4-amino-5-(4-nitrobenzoyl)thiazol-2-yl]-4-fluoro-anilino)propanamide]
0.062	CC(C(N)=O)N(c1ccc(F)cc1)c1nc(N)c(C(=O)c2ccc(N(C)C)cc2)s1 (racemic) [Example 180, rac-2-(N-[4-amino-5-[4-(dimethylamino)benzoyl]thiazol-2-yl]-4-fluoro-anilino)propanamide]
0.222	CC(C(N)=O)N(c1ccc(F)cc1)c1nc(N)c(C(=O)c2cccc(OC(F)F)c2)s1 (racemic) [Example 183, rac-2-(N-[4-amino-5-[3-(difluoromethoxy)benzoyl]thiazol-2-yl]-4-fluoro-anilino)propanamide]
0.428	CC(C(N)=O)N(c1ccc(F)c(F)c1)c1nc(N)c(C(=O)c2cccnc2)s1 (racemic) [Example 184, rac-2-(N-[4-amino-5-(pyridine-3-carbonyl)thiazol-2-yl]-3,4-difluoro-anilino)propanamide]
0.392	CC(C(N)=O)N(c1ccc(F)cc1)c1nc(N)c(C(=O)c2ccnc(Cl)c2)s1 (racemic) [Example 186, rac-2-(N-[4-amino-5-(2-chloropyridine-4-carbonyl)thiazol-2-yl]-4-fluoro-anilino)propanamide]
1.4	Cc1cc(C(=O)c2sc(N(c3ccc(F)cc3)C(C)C(N)=O)nc2N)ccn1 (racemic) [Example 187, rac-2-(N-[4-amino-5-(2-methylpyridine-4-carbonyl)thiazol-2-yl]-4-fluoro-anilino)propanamide]
6.35	CC(C(N)=O)N(c1ccncc1)c1nc(N)c(C(=O)c2ccccc2)s1 (racemic) [Example 189, rac-2-[(4-amino-5-benzoyl-thiazol-2-yl)-(4-pyridyl)amino]propanamide]
0.356	COc1ccc(N(c2nc(N)c(C(=O)c3ccccc3)s2)C(C)C(N)=O)cc1F (racemic) [Example 191, rac-2-(N-(4-amino-5-benzoyl-thiazol-2-yl)-3-fluoro-4-methoxy-anilino)propanamide]
0.224	CC(C(N)=O)N(c1ccc(C#N)c(F)c1)c1nc(N)c(C(=O)c2ccccc2)s1 (racemic) [Example 192, rac-2-(N-(4-amino-5-benzoyl-thiazol-2-yl)-4-cyano-3-fluoro-anilino)propanamide]
